Patent US20020122830A1, “Method for the treatment of a soil containing soilborne pathogens” (priority 2000, published 2002)
Like-named read-outs stand apart in the source and are kept apart here.

How the values were obtained:
[1] = system: V. dahliae microsclerotia; assay: Viability of V. dahliae microsclerotia buried in amended soil (test tube bioassay); type: cell-based, Verticillium dahliae; conditions: for Ammonia level in soil coinciding with a rapid loss in the viability of microsclerotia: soil amended with MBM or SM
Experimental: The viability of V. dahliae microsclerotia retrieved from soil was determined using the following experimental model system. […] Microsclerotia suspended in crushed silica sand was added to a nylon pouch which was then buried in the soil or suspended in the head space of each tube. Water was added to each tube to bring soil moisture to 0.33 bar tension. The tubes were then loosely capped, and placed in the dark at 24° C. On each date of analysis, the nylon pouches were retrieved and an Anderson air sampler used to impact the pouch contents onto a medium (soil-pectate-tergitol) selective for growth of V. dahliae. […] The levels of NH3, NO2^− and NO3^− in soil were determined at each sample date. […] The slurry was once again mechanically disrupted and its pH determined. The slurry was centrifuged and supernatant analyzed for total (NH3+NH4^+), (NHO2+NO2^−) and NO3^− using an ion chromatograph.

V. dahliae MS [2] = system: V. dahliae MS
Experimental: The germination of V. dahliae MS was determined using a setup similar to that described above for exposure of V. dahliae MS to NH3 in buffered solution. Exceptions being various amounts of 0.270 M NaNO2 stock solution were added (from 0 to 2.0 mL) to 40 mL of 0.02 M citric acid solution (set to pH 5.0 with NaOH (Perrin and Dempsey 1974)) and brought to 50 mL volume with the same citric acid solution. All experiments were done in triiplicate and repeated. Solutions were filter sterilized and 15 mL placed into sterile screw cap tubes (total capacity 15.5 mL). Immediately, V. dahliae MS were added to each tube, the tube closed, placed at 24° C. and in the dark and inverted twice daily. At 8 hours, 1 and 4 days, V. dahliae MS viability was determined. The concentration of HNO2 in solutions was estimated as described below. The effect of NO2^− on survival of V. dahliae MS was tested by adding various amounts of NaNO2 (0 to 53 mM NO2^−) to citric acid buffer and pH set to 4.0, 5.0 and 6.0. The effect of type of NO2^− salt on survival of V. dahliae MS was tested by adding KNO2 or NaCl instead of NaNO2 to citric acid buffer (set to pH 5.0). […]
Various concentrations of HNO2 were generated in citric acid buffer solution at pH 4.0, 5.0 or 6.0 with NaNO2 added. […] Microsclerotia survival was determined as described previously for NH3 in glycine buffer.

V. dahliae MS [3] = conditions: sealer jars, 30 mL solution, four days, room temperature
Experimental: Exposure of V. dahliae MS to HNO2 gas was done using a similar procedure described above. To sealer jars (250 mL), 50 mL of a prepared solution of NaNO2 in citric acid solution was added. A V. dahliae MS bag was suspended in the atmosphere of the jar. The jar was sealed, and placed at 24° C. in the dark for 4 days. Thereafter the bags were retrieved and the viability of V. dahliae MS determined. This experiment was repeated and done in triplicate.
Various amounts of HNO2 in atmosphere were subjected to microsclerotia by suspending microsclerotia in sealer jars containing 30 mL of citric acid HNO2 buffer solution and incubated in the dark at room temperature for four days.

V. dahliae MS [4] = conditions: agar medium, germination recorded two weeks later
Experimental: NH3 was generated in SPT medium by addition of various concentrations of NH4Cl to the medium and varying the pH of the medium (7, 7.6, 8 and 8.5). Immediately following cooling and hardening of the medium, 25 microsclerotia per Petri dish were transferred individually with a needle and germination recorded two weeks later.
Various amountes of NH4Cl salt (to 0, 25, 50, 100 and 200 mM) was added to soil peclate medium (SPT) and the pH of the medium adjusted to 7.0, 7.6, 8.0 or 8.5 by addition of 5 M NaOH. For each level of NH4Cl and pH, three replicate dishes were poured. The agar was allowed to solidify for 2 hours and immediately thereafter 25 V. dahliae MS were individually transferred to each dish using a sterile hypodermic needle. The dishes were wrapped with Parafilm (American National Can, Neenah Wis.) to limit loss of NH3 by volatilization, and incubated for two weeks at 24° C. in the dark. The viability of V. dahliae MS was determined as percent of total MS forming colonies. The concentration of NH3 in medium was estimated as described below and ranged from 0 to 31 mM. The pH of medium after hardening and two weeks after incubation was tested using pH test strips (ColorpHast pH 5-10; EM Science, Gibbstown N.J.) and was within 0.5 units (limit of resolution of the test strips) of that set at the start.

V. dahliae MS [5] = conditions: glycine buffer pH 8.6, exposure of four days
Experimental: Various concentrations of NH3 were generated in glycine or tricine buffer solution at pH 8.6 with NH4Cl or (NH4)2SO4 added. A 15 mL test tube was filled with appropriate buffer and NH4^+ solution, microsclerotia added, the tube capped, then placed in the dark at 24° C. and the tubes inverted daily to suspend the microsclerotia in solution. Microsclerotia survival was determined by emptying contents of the tube into a Buchner funnel, the microsclerotia being retained on Whatman #42 filter paper, rinsed with distilled water, transferred to SPT medium by placing the filter paper in contact with the agar medium and removed leaving the microsclerotia adhering to the medium.
The final volume was brought to 50 mL with the same glycine solution. Solutions were then sterilized by filtration through a 0.22 um pore size filter and 15 mL placed into three replicate sterile screw cap tubes (total capacity 15.5 mL) About 200 V. dahliae MS were immediately added to each tube and the tube closed and placed at 24° C. and in the dark. Tubes were inverted every 12 hours to mix and suspend V. dahliae MS in the solution. […] At 8 hours, 1 and 4 days, the contents of each tube was passed onto a Buchner funnel containing sterile filter paper (Whatman #42). […] The viability of V. dahliae MS was determined as the percentage of MS forming colonies out of 50 counted per replicate dish. […]

N.N.O=S(=O)(O)O [(NH4)2SO4]
kill of microsclerotia ([1]; 400 or 800 mg N kg^−1, air-dried Beauseart soil stored 1.5 years): failed to accumulate HNO2 and kill microsclerotia | kill of microsclerotia ([1]; 400 or 800 mg N kg^−1, recently collected Mackenzie soil): death of microsclerotia

O=NO [HNO2, nitrous acid]
HNO2 concentration sufficient to kill all microsclerotia (V. dahliae MS [2]): about 0.025 mM | calculated HNO2 concentration required to kill all microsclerotia (V. dahliae MS [2]): above 0.10 mM | HNO2 solution concentration above which suspended microsclerotia died in atmosphere (V. dahliae MS [3]): 0.10 mM

N [NH3, Ammonia]
NH3 accumulation consistently accompanied with a rapid decline in the viability of microsclerotia in soil ([1]; in soil): greater than 10 mM | Ammonia level in soil coinciding with a rapid loss in the viability of microsclerotia [1]: > 20 mM | Ammonia level in soil coinciding with a rapid loss in the viability of microsclerotia ([1]; listed as Ammonia): > 65 mg N kg^−1 soil | NH3 concentration preventing germination of microsclerotia (V. dahliae MS [4]): > 3 mM | NH3 concentration preventing germination of microsclerotia (V. dahliae MS [5]): greater than 5 mM

N.O [NH4OH, ammonium hydroxide]
addition sufficient to induce levels of NH3 sufficient to kill microsclerotia ([1]; Thorndale or Beauseart soil, incubated four days (data not shown)): about 1800 mg NH4OH—N kg^−1
